Laboratory results taken from publication PMC6620859, “Synthesis and Preclinical Evaluation of the Fibrin-Binding Cyclic Peptide ^18F-iCREKA: Comparison with Its Contrasted Linear Peptide” (Contrast Media & Molecular Imaging, 2019).
“And” between values parts separate entries of the source, which are not always exact repeats. Identical values can stand only once.

Columns and labels:
U87MG xenograft = conditions: mouse, in vivo
Protocol: Animal procedures were performed according to the guideline of the Animal Ethics Committee of the Southern Medical University. Approximately 10 × 10^6 U87MG cells and Caov3 cells were suspended in PBS and subcutaneously implanted in the right armpit of female BALB/c nude mice. Tumors were allowed to grow to a size of 0.5–1.5 cm in diameter.
Small-animal PET/CTs were performed at the PET center of Southern Medical University Nanfang Hospital using a PET/CT scanner (Simens Inveon Micro-PET/CT). Tumor-bearing mice (n = 3/group) were intravenously injected with 5.55 MBq of ^18F-NOTA-LP or ^18F-NOTA-iCREKA under isoflurane anesthesia. A ten-minute static PET scan for each animal was acquired at 30, 60, and 120 min after the injection. 120 min dynamic scans were also obtained for ^18F-NOTA-LP and ^18F-NOTA-iCREKA (n = 2/group). The 3-dimensional ordered subset expectation maximization (3D-OSEM) algorithm was used for the PET reconstruction, and CT was applied for attenuation correction. Inveon Research Workplace (IRW) 3.0 software (Siemens, Germany) was used to measure the regions of interest (ROIs). The radioactivity concentrations were computed automatically, and the results were reflected by the unit of percent injected dose per gram (%ID/g). The maximum %ID/g of the ROIs was used for statistical analyses. Tumor-to-muscle (T/M) uptake ratios were calculated by dividing the radioactivity uptake in the tumor by the contralateral shoulder muscle.

Caov3 cells = assay: Cellular uptake test in Caov3 cells; type: cell-based, human; conditions: radio medium mixed with activated MMP-2; compared with no activation
Protocol: (§1) U87MG cells and Caov3 cells were counted and uniformly inoculated into 24-well plates. The 24-well plates were marked, and cells were incubated for 24 hours in complete DMEM with 10% fetal bovine serum. Radio medium was prepared by adding 888 KBq (24 μCi) fluorine-18-labeled peptide into 15 mL DMEM without any serum. After incubation, the complete DMEM were poured and the radio medium were added in with 500 μL/well. The remainder medium were collected into 4 γ countertubes with 500 μL/tube to be representative of radioactivity gross. When the time arrived at 2, 5, 15, 30, 60, and 120 min, the radio medium were carefully pipetted out and the wells were carefully rinsed by 1 mL of PBS for 3 times. 4 wells were divided into a group corresponding to one time point. After the rinsing, SDS-NaOH solutions were added into the wells to dissociate the cells. The solutions were collected into γ countertubes to measure the radioactivity. The binding affinity was reflected by the radioactivity percentage, which was recorded as ID%, of the wells and the gross. The final results were recorded as the time-radioactivity curve including the six time points.
(§2) Fluorine-18 labeled peptides binding affinities after activation were also measured by this protocol while the radio-medium were mixed with activated MMP-2 (Abcam).

[1] = type: physicochemical
Protocol: The water partition coefficient was reflected by the logP value of the fluorine-18-labeled peptides. 500 μL of octanol and 500 μL of pure water were added into an EP tube. 185 KBq (5 μCi) of fluorine-18-labeled peptides were added into the solution and well mixed. After centrifugating for 5 min at a speed of 1000 r/min, 300 μL of supernatant liquid and 300 μL of lower liquid were carefully pipetted into two γ countertubes, respectively. The logarithm of the radioactivity ratio of octanol to water was the logP value. The test was repeated four times for each fluorine-18-labeled peptide.

[2] = mouse, in vivo
Protocol: A nude with U87MG xenograft was injected with a dose of approximately 11.1 MBq (0.3 mCi) of ^18F-labeled peptides via the tail vein. The mouse was euthanized at 30 min after injection, the tumor was carefully excised, and the blood was collected. The tumor was cut into pieces and made into homogenates by mixing 200 μL normal saline. The mixture was centrifuged for 10 min at a speed of 12000 r/min. The supernatant liquid was carefully pipetted and transferred into an Amicon® Ultracentrifugal filter device for further centrifugation. The filtrate was injected into an HPLC column to analyze the in vivo stability of fluorine-18-labeled peptide.

fibrin clots = biological target: T1, fibrin clots (Homo sapiens, UniProt P02671+P02675+P02679); assay: Fluorine-18-labeled peptide binding affinity to fibrin clots; conditions: clots from 75 μL fibrinogen 2 mg/mL + 30 μL thrombin 2.5 U/mL; 100 μL tracer in PBS, 37°C, one hour, PBS washed three times, radioactive counter, four tubes, mean ± SD
T1 sequence (P02671 36-629 limits assumed): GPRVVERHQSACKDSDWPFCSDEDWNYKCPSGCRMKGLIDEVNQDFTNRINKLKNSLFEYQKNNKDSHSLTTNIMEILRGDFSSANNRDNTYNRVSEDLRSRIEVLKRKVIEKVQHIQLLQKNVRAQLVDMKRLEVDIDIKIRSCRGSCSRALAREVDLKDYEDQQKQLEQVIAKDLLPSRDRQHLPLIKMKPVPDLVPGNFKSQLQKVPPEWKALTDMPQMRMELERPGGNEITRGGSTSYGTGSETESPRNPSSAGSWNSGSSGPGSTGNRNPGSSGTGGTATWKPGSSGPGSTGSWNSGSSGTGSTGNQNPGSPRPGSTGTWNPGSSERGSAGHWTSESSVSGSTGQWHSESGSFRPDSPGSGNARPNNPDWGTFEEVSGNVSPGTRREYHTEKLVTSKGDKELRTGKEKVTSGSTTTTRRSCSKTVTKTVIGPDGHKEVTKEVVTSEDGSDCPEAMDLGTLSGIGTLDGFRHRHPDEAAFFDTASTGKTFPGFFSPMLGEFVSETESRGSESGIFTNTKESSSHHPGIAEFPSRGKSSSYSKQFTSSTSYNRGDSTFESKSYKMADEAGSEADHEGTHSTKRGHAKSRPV
T1 sequence (P02675 45-491 limits assumed): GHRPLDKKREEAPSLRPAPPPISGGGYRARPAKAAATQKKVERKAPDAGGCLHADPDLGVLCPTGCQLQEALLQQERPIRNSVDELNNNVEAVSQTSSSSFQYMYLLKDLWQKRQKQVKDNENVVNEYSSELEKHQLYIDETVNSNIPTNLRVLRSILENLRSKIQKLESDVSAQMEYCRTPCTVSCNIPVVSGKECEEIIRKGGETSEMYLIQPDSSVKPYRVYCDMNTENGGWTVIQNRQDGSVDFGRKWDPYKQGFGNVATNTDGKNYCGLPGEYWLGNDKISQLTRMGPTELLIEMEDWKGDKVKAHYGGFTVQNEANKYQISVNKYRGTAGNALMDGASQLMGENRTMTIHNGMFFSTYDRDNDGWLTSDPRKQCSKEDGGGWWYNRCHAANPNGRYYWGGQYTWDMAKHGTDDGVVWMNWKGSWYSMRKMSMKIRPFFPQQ
T1 sequence (P02679 27-437 isoform P02679-2 limits assumed): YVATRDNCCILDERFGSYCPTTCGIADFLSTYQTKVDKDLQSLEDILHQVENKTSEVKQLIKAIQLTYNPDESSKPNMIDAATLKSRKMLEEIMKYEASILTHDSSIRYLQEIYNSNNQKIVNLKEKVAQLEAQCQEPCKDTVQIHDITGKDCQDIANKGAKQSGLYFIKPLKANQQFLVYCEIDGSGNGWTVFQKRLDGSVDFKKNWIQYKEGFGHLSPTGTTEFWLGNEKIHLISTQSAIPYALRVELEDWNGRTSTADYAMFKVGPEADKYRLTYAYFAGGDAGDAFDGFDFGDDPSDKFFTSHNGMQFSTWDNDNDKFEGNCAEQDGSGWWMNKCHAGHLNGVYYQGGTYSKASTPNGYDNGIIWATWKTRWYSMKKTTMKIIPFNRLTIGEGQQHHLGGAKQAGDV
Protocol: As previously reported, to synthesize fibrin clots, 75 μL of fibrinogen solution (2 mg/mL) in 0.9% NaCl was added to four 1.5 mL EP tubes. 30 μL of a 2.5 U/mL thrombin solution in 0.9% NaCl was subsequently added to these tubes. The tubes were placed in the thermostatic oscillator at 37°C for four hours, and the gels representative of fibrin clots were formed in the tubes. 370 KBq (10 μCi) fluorine-18-labeled peptide was diluted in 1 ml PBS. 100 μL of the solution was added into each tube, respectively, and added into four empty tubes for reference. All tubes were incubated at 37°C for one hour. After that, the supernatant liquid was carefully pipetted. PBS was added and pipetted three times to remove any CREKA or peptides not bond to the fibrin clots. Finally, all tubes were measured by a CAPRAC®-R radioactive counter (Imaxeon) to obtain the bond-to-gross ratio.

U87MG cells = assay: Cellular uptake test in U87MG cells; type: cell-based, human; conditions: for cellular uptake to U87MG cells after activation by MMP-2: radio medium mixed with activated MMP-2, compared with no activation; for cellular uptake percentage (ID%), peak / maximum, U87MG cells: without MMP-2 activation, serum-free DMEM, 500 μL/well, 2-120 min, PBS rinsed 3 times, γ counting, 4 wells per time point
Protocol: as §1, §2

| kidney uptake (U87MG xenograft) | liver uptake (U87MG xenograft) | tumor-to-muscle (T/M) ratio on micro-PET (U87MG xenograft) | logP value [1] | area under the time-radioactivity curve representative of defluorination, blood [2] [%] | area under the time-radioactivity curve representative of defluorination, tumor [2] [%] | fibrin-binding percentage (bond-to-gross ratio) (fibrin clots) | maximum T/M ratio on dynamic micro-PET (U87MG xenograft) | Substance | cellular uptake to Caov3 cells after activation by MMP-2 (Caov3 cells) | cellular uptake to U87MG cells after activation by MMP-2 (U87MG cells) | cellular uptake percentage (ID%), peak / maximum, U87MG cells (U87MG cells) |
| --- | --- | --- | --- | --- | --- | --- | --- | --- | --- | --- | --- |
| about 27 %ID/g | about 4 %ID/g | 6.48 ± 0.50 | −2.51 ± 0.01 | 27.78 | 23.28 | 67.92 ± 6.71% | – | CREKAPLGLAGRKKRRQRRRCK (NOTA) (Cys&Cys bridge) (disulfide) [^18F-NOTA-iCREKA] | obviously increased | increased | 23.90% and 16.05% |
| – | – | 2.08 ± 0.50 | −2.57 ± 0.02 | – | – | 67.09 ± 6.20% | 2.69 ± 0.35 | CREKAPLGLAGRKKRRQRRRCK (NOTA) [^18F-NOTA-LP, Al^18F-labeled NOTA conjunct of the contrasted linear peptide LP] | slightly higher | increased | 16.05% and 23.90% |
| – | – | – | −2.47 ± 0.05 | – | – | 69.31% ± 6.82 | – | NOTA-CREKA [^18F-NOTA-CREKA, Al^18F-labeled NOTA conjunct of the pentapeptide CREKA] | nearly no radioactivity | still no radioactivity | – |
